This is an account of results in patent US8309546B2, “Morpholinopurine derivatives” (Daiichi Sankyo Company, Limited, priority 2008, dated 2012).

SMILES strings stand for the structures.

In general, IC50 refers to the concentration that inhibits the measured activity by half.

For assay [1], the target named is T1, human mTOR (His-tagged mTOR (1362C)) (Homo sapiens, UniProt P42345).
T1 construct: the 1362 to 2549 amino acid portion on the C terminus side of human mTOR; His tag (N); made in house
T1 sequence (P42345 1362-2549): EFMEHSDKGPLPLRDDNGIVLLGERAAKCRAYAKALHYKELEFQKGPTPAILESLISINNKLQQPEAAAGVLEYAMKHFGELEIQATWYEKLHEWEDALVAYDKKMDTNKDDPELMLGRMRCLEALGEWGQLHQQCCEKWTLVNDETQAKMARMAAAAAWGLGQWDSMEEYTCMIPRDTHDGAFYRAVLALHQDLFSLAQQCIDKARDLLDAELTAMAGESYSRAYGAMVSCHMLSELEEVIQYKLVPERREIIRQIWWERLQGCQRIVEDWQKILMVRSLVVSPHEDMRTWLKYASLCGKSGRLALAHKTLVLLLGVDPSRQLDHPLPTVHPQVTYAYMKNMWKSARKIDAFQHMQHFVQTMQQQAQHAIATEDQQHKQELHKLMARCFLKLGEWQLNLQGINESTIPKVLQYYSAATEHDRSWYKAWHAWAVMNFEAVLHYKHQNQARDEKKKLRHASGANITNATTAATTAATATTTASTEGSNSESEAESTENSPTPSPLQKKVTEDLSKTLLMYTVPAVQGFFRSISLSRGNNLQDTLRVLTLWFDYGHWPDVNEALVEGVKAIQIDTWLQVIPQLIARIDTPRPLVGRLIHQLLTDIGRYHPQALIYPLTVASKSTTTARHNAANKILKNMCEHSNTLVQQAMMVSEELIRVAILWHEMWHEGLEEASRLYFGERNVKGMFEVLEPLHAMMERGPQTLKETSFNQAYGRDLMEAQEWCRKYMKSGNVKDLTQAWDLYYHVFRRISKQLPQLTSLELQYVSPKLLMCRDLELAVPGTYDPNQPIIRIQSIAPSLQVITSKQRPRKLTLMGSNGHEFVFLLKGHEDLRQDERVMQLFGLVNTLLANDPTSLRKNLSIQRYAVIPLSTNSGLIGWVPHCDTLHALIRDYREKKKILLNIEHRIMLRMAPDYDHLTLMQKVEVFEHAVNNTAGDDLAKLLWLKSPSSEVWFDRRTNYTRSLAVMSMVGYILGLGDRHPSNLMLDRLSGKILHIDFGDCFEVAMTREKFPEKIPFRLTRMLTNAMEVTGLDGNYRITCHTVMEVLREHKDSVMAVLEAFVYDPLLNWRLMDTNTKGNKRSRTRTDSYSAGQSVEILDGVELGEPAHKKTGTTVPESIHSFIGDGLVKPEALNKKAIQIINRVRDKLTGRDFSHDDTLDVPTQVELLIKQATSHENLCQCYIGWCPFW
Nature of the assay: mTOR kinase activity inhibition assay. Conditions: HTRF, read-out: IC50 against mTOR. In kind it is biochemical. A digest of the protocol: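 Crude His-tagged mTOR (aa 1362–2549) from stable HEK293 cells, with 8 μg/ml biotinylated peptide in 50 mM HEPES pH 7.5, 20 mM MnCl2; compound diluted in 20 μM ATP solution, reaction 3 h at room temperature. Phospho-peptide detected by HTRF (anti-phospho-S6K Thr389 cryptate/streptavidin-XL665, overnight at 4°C), 665/620 nm ratio. IC50 derived from curve fit of % inhibition.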
In general terms: Time-resolved FRET reads energy transfer from a long-lived donor to a nearby acceptor.

Assay [2] deals with human endometrial cancer cell strain AN3CA. As to the kind of experiment: Cell growth inhibition test (MTT), AN3CA. In kind it is cell-based. Conditions: AN3-CA, 72 h, 3 days culture, read-out: concentration exhibiting anti-cell effect (GI50). In short, it runs like this:
(§1)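 Seed 5000/1000/5000 cells per well (AN3CA/IGROV1/HT29); add compound next day; culture 3 d, 37° C, 5% CO2; MTT 4 h, DMSO, A540. T/C % vs pre-dose baseline; GI50 from bracketing concentrations.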

Assay [3] concerns human colon cancer cell strain HT29. As to the kind of experiment: Cell growth inhibition test (MTT), HT29. It counts as cell-based. Particulars: HT-29, 72 h, HT29, 3 days culture, read-out: concentration exhibiting anti-cell effect (GI50). A digest of the protocol:
as §1

`CC(C)Cn1c(N2CCN(C=O)CC2)nc2c(N3CCOCC3)nc(-c3cnc(N)nc3)nc21` [Example 90, 4-[2-(2-Aminopyrimidin-5-yl)-9-isobutyl-6-morpholin-4-yl-9H-purin-8-yl]piperazine-1-carboaldehyde]: in assay [1], the IC50 lay in the range of 0.01 to 0.03 µM. Further, the GI50 in assay [2] and in assay [3] was no more than 5 µM in each case.

Take `CC[C@H]1CN(c2nc3c(N4CCOCC4)nc(-c4cnc(N)nc4)nc3n2CC(F)(F)F)CCN1C(=O)[C@H](C)O` [Example 77, (2S)-1-{(2S)-4-[2-(2-Aminopyrimidin-5-yl)-6-morpholin-4-yl-9-(2,2,2-trifluoroethyl)-9H-purin-8-yl]-2-ethylpiperazin-1-yl}-1-oxopropan-2-ol]: in assay [1], the IC50 was 0.01 to 0.03 µM. The GI50 in assay [2] and in assay [3] was no more than 5 µM each time.

On to `CC(C)Cn1c(N2CCN(C(=O)[C@H](C)O)[C@@H](C)C2)nc2c(N3CCOCC3)nc(-c3cnc(N)nc3)nc21` [Example 104, (2S)-1-{(2S)-4-[2-(2-Aminopyrimidin-5-yl)-9-isobutyl-6-morpholin-4-yl-9H-purin-8-yl]-2-methylpiperazin-1-yl}-1-oxopropan-2-ol], for which, in assay [1], the IC50 lay in the range of 0.01 to 0.03 µM. In addition, the GI50 in assay [2] and in assay [3] was no more than 5 µM each time.

Regarding `CNc1ncc(-c2nc(N3CCOCC3)c3nc(N4CCN(S(C)(=O)=O)CC4)n(CC(F)(F)F)c3n2)cn1` [Example 11, N-Methyl-5-{8-[4-(methylsulfonyl)piperazin-1-yl]-6-morpholin-4-yl-9-(2,2,2-trifluoroethyl)-9H-purin-2-yl}pyrimidin-2-amine], the IC50 in assay [1] is less than 0.01 µM. Also, the GI50 in assay [2] and in assay [3] was no more than 5 µM in each case.

As to `C[C@@H]1CN(c2nc3c(N4CCOCC4)nc(-c4cnc(N)nc4)nc3n2CC(F)(F)F)CCN1C=O` [Example 112, (2R)-4-[2-(2-Aminopyrimidin-5-yl)-6-morpholin-4-yl-9-(2,2,2-trifluoroethyl)-9H-purin-8-yl]-2-methylpiperazine-1-carboaldehyde], in assay [1], the IC50 is less than 0.01 µM. The GI50 in assay [2] and in assay [3] was no more than 5 µM in each case.

Regarding `CC(C)Cn1c(N2CCN(C(=O)C[C@@H](C)O)[C@@H](C)C2)nc2c(N3CCOCC3)nc(-c3cnc(N)nc3)nc21` [Example 83, (2R)-4-{(2S)-4-[2-(2-Aminopyrimidin-5-yl)-9-isobutyl-6-morpholin-4-yl-9H-purin-8-yl]-2-methylpiperazin-1-yl}-4-oxobutan-2-ol], the IC50 in assay [1] is less than 0.01 µM. For the same molecule, the GI50 in assay [2] and in assay [3] was no more than 5 µM each time.

Consider `CC(=O)N1CCN(c2nc3c(N4CCOCC4)nc(-c4cnc(N)nc4)nc3n2CC2CC2)C[C@H]1C` [Example 97, 5-{8-[(3R)-4-Acetyl-3-methylpiperazin-1-yl]-9-(cyclopropylmethyl)-6-morpholin-4-yl-9H-purin-2-yl}pyrimidin-2-amine], for which, in assay [1], the IC50 lay within 0.01 to 0.03 µM. In addition, the GI50 in assay [2] and in assay [3] was no more than 5 µM in each case.

For `CC(C)Cn1c(N2CCN(C(=O)C[C@H](C)O)[C@H](C)C2)nc2c(N3CCOCC3)nc(-c3cnc(N)nc3)nc21` [Example 86, (2S)-4-{(2R)-4-[2-(2-Aminopyrimidin-5-yl)-9-isobutyl-6-morpholin-4-yl-9H-purin-8-yl]-2-methylpiperazin-1-yl}-4-oxobutan-2-ol], the IC50 in assay [1] was in the range of 0.01 to 0.03 µM. Moreover, the GI50 in assay [2] and in assay [3] was no more than 5 µM each time.

Regarding `CC(=O)N1CCN(c2nc3c(N4CCOCC4)nc(-c4cnc(N)nc4)nc3n2CC(C)C)C[C@H]1C` [Example 99, 5-{8-[(3R)-4-Acetyl-3-methylpiperazin-1-yl]-9-isobutyl-6-morpholin-4-yl-9H-purin-2-yl}pyrimidin-2-amine], the IC50 in assay [1] fell in the range of 0.01 to 0.03 µM. The GI50 in assay [2] and in assay [3] was no more than 5 µM in each case.

`CC(C)Cn1c(N2CCN(C(=O)CN(C)C)CC2)nc2c(N3CCOCC3)nc(-c3cnc(N)nc3)nc21` [Example 55, 5-(8-{4-[(Dimethylamino)acetyl]piperazin-1-yl}-9-isobutyl-6-morpholin-4-yl-9H-purin-2-yl)pyrimidin-2-amine]: in assay [1], the IC50 was in the range of 0.03 to 0.1 µM. Moreover, the GI50 in assay [2] and in assay [3] was no more than 5 µM in each case.

Turning to `C[C@H]1COCCN1c1nc(-c2cnc(N)nc2)nc2c1nc(N1CCN(S(C)(=O)=O)CC1)n2CC(F)(F)F` [Example 127, 5-{6-[(3S)-3-Methylmorpholin-4-yl]-8-[4-(methylsulfonyl)piperazin-1-yl]-9-(2,2,2-trifluoroethyl)-9H-purin-2-yl}pyrimidin-2-amine], the IC50 in assay [1] is less than 0.01 µM. In addition, the GI50 in assay [2] and in assay [3] was no more than 5 µM in each case.

Consider `CNc1ncc(-c2nc(N3CCOCC3)c3nc(N4CCN(CC(=O)N(C)C)[C@H](C)C4)n(CC(F)(F)F)c3n2)cn1` [Example 87, N,N-Dimethyl-2-[(2R)-2-methyl-4-{2-[2-(methylamino)pyrimidin-5-yl]-6-morpholin-4-yl-9-(2,2,2-trifluoroethyl)-9H-purin-8-yl}piperazin-1-yl]acetamide], for which the IC50 in assay [1] was in the range of 0.01 to 0.03 µM. The GI50 in assay [2] and in assay [3] was no more than 5 µM throughout.

Take `CC(=O)N1CCN(c2nc3c(N4CCOCC4)nc(-c4cnc(N)nc4)nc3n2CC(C)C)C[C@@H]1C` [Example 101, 5-{8-[(3S)-4-Acetyl-3-methylpiperazin-1-yl]-9-isobutyl-6-morpholin-4-yl-9H-purin-2-yl}pyrimidin-2-amine]: the IC50 in assay [1] is less than 0.01 µM. For the same molecule, the GI50 in assay [2] and in assay [3] was no more than 5 µM throughout.

`CCC(=O)N1CCN(c2nc3c(N4CCOCC4)nc(-c4cnc(N)nc4)nc3n2CC(F)(F)F)CC1` [Example 117, 5-[6-Morpholin-4-yl-8-(4-propionylpiperazin-1-yl)-9-(2,2,2-trifluoroethyl)-9H-purin-2-yl]pyrimidin-2-amine]: in assay [1], the IC50 was less than 0.01 µM. Moreover, the GI50 in assay [2] and in assay [3] was no more than 5 µM throughout.

For the molecule `CC(=O)N1CCN(c2nc3c(N4CCOCC4)nc(-c4cnc(N)nc4)nc3n2CC(F)(F)F)CC12CC2` [Example 119, 5-[8-(4-Acetyl-4,7-diazaspiro[2.5]oct-7-yl)-6-morpholin-4-yl-9-(2,2,2-trifluoroethyl)-9H-purin-2-yl]pyrimidin-2-amine], the IC50 in assay [1] lay in the range of 0.01 to 0.03 µM. For the same molecule, the GI50 in assay [2] and in assay [3] was no more than 5 µM each time.

As for `CC[C@@H]1CN(c2nc3c(N4CCOCC4)nc(-c4cnc(N)nc4)nc3n2CC(F)(F)F)CCN1C(=O)[C@H](C)O` [Example 79], in assay [1], the IC50 was less than 0.01 µM. Moreover, the GI50 in assay [2] and in assay [3] was no more than 5 µM in each case.

With `C[C@@H]1CN(c2nc3c(N4CCOCC4)nc(-c4cnc(N)nc4)nc3n2CC(F)(F)F)CCN1S(C)(=O)=O` [Example 61, 5-{8-[(3R)-3-Methyl-4-(methylsulfonyl)piperazin-1-yl]-6-morpholin-4-yl-9-(2,2,2-trifluoroethyl)-9H-purin-2-yl}pyrimidin-2-amine], in assay [1], the IC50 lay in the range of 0.01 to 0.03 µM. Besides, the GI50 in assay [2] and in assay [3] was no more than 5 µM throughout.

Turning to `CNc1ncc(-c2nc(N3CCOCC3)c3nc(N4CCN(S(C)(=O)=O)[C@H](C)C4)n(CC(F)(F)F)c3n2)cn1` [Example 106, N-Methyl-5-{8-[(3R)-3-methyl-4-(methylsulfonyl)piperazin-1-yl]-6-morpholin-4-yl-9-(2,2,2-trifluoroethyl)-9H-purin-2-yl}pyrimidin-2-amine], in assay [1], the IC50 was less than 0.01 µM. Besides, the GI50 in assay [2] and in assay [3] was no more than 5 µM in each case.

With `CC(C)Cn1c(N2CCN(C(=O)C[C@H](C)O)CC2)nc2c(N3CCOCC3)nc(-c3cnc(N)nc3)nc21` [Example 82, (2S)-4-{4-[2-(2-Aminopyrimidin-5-yl)-9-isobutyl-6-morpholin-4-yl-9H-purin-8-yl]piperazin-1-yl}-4-oxobutan-2-ol], the concentration for half-maximal inhibition (IC50) in assay [1] lay in the range of 0.01 to 0.03 µM. The GI50 in assay [2] and in assay [3] was no more than 5 µM each time.

As for `C[C@@H](O)CC(=O)N1CCN(c2nc3c(N4CCOCC4)nc(-c4cnc(N)nc4)nc3n2CC(F)(F)F)CC1` [Example 70, (2R)-4-{4-[2-(2-Aminopyrimidin-5-yl)-6-morpholin-4-yl-9-(2,2,2-trifluoroethyl)-9H-purin-8-yl]piperazin-1-yl}-4-oxobutan-2-ol], the IC50 in assay [1] was less than 0.01 µM. The GI50 in assay [2] and in assay [3] was no more than 5 µM each time.

On to `CNc1ncc(-c2nc(N3CCOCC3)c3nc(N4CCN(C(C)=O)[C@@H](C)C4)n(CC(F)(F)F)c3n2)cn1` [Example 107, 5-{8-[(3S)-4-Acetyl-3-methylpiperazin-1-yl]-6-morpholin-4-yl-9-(2,2,2-trifluoroethyl)-9H-purin-2-yl}-N-methylpyrimidin-2-amine], for which the IC50 in assay [1] is less than 0.01 µM. Moreover, the GI50 in assay [2] and in assay [3] was no more than 5 µM in each case.

For `C[C@H](O)C(=O)N1CCN(c2nc3c(N4CCOCC4)nc(-c4cnc(N)nc4)nc3n2CC(F)(F)F)CC1` [Example 68, (2S)-1-{4-[2-(2-Aminopyrimidin-5-yl)-6-morpholin-4-yl-9-(2,2,2-trifluoroethyl)-9H-purin-8-yl]piperazin-1-yl}-1-oxopropan-2-ol], the IC50 in assay [1] was less than 0.01 µM. Also, the GI50 in assay [2] and in assay [3] was no more than 5 µM each time.
